{"source": "patent US20100168040A1", "about": "“MUSCLE FATIGUE REMEDY” (Kyowa Hakko Kogyo Co., Ltd., priority 2006, published 2010)", "key": {"[1]": {"conditions": "alanylglutamine compared to glutamine; cited from earlier work"}, "[2]": {"conditions": "cited from earlier work"}, "[3]": {"conditions": "alanylglutamine compared to glutamine; cited from earlier work", "remark": "listed apart in the source"}, "[4]": {"tested_on": "muscle fatigue", "test": "Test Example 1: muscle fatigue status of healthy males consuming alanylglutamine continuously for 1 month", "type": "in vivo, human", "conditions": "for Muscle fatigue status: 1 month", "protocol": "Twenty-six healthy males ages 21 to 60 consumed alanylglutamine (manufactured by Kyowa Hakko Co., Ltd.) continuously for 1 month, and the muscle fatigue status of the subjects was evaluated."}}, "note": "Residues, ends and D or L forms follow the SMILES beside them.", "data": [{"smiles": "C[C@H](N)C(=O)N[C@@H](CCC(N)=O)C(=O)O", "note": "[alanylglutamine] (H-Ala-Gln-OH)", "values": [{"measurement": "solubility in aqueous solutions", "setting": "[1]", "result": "superior"}, {"measurement": "degradation in the body", "setting": "[2]", "result": "immediately degraded into alanine and glutamine"}, {"measurement": "heat stability", "setting": "[3]", "result": "superior"}, {"measurement": "subjects with alleviation of muscle pain after exercise", "setting": "[4]; of the 15 listed subjects (26 in all), 1 month consumption", "result": 10, "unit": "subjects"}, {"measurement": "subjects in whom relief of muscle fatigue was observed", "setting": "[4]; of the 26 subjects, 1 month consumption", "result": 15, "unit": "subjects"}, {"measurement": "Muscle fatigue status", "setting": "[4]; subject 21 to 25 years, before going to bed, 2 g/administration", "result": "Disappearance of muscle pain"}, {"measurement": "Muscle fatigue status", "setting": "[4]; subject 26 to 30 years, after exercising, 1 g/administration", "result": "Substantial relief of muscle pain"}, {"measurement": "Muscle fatigue status", "setting": "[4]; subject 26 to 30 years, before and after exercise, approximately 1 g/administration", "result": "Reduction of muscle fatigue"}, {"measurement": "Muscle fatigue status", "setting": "[4]; subject 31 to 35 years, before exercise, 8 g/administration", "result": "Feeling of damage relief"}, {"measurement": "Muscle fatigue status", "setting": "[4]; subject 31 to 35 years, morning and before going to bed, 0.6 g/administration", "result": "Reduction of muscle pain after"}, {"measurement": "Muscle fatigue status", "setting": "[4]; subject 31 to 35 years, morning, 0.5 g/administration", "result": "Lighter muscle pain after"}, {"measurement": "Muscle fatigue status", "setting": "[4]; subject 36 to 40 years, morning and evening, 0.5 g/administration", "result": "Reduction of muscle pain"}, {"measurement": "Muscle fatigue status", "setting": "[4]; subject 45 to 50 years, before going to bed, approximately 2.5 g/administration", "result": "Reduction of stiff shoulders the"}, {"measurement": "Muscle fatigue status", "setting": "[4]; subject 46 to 50 years, after meals morning and evening, 1 g/administration", "result": "Less fatigue and muscle pain"}, {"measurement": "Muscle fatigue status", "setting": "[4]; subject 51 to 55 years, before going to bed, approximately 0.5 g/administration", "result": "Became less prone to fatigue"}, {"measurement": "Muscle fatigue status", "setting": "[4]; subject 51 to 55 years, every morning, 1 g/administration", "result": "Alleviation of muscle pain after"}, {"measurement": "Muscle fatigue status", "setting": "[4]; subject 56 to 60 years, morning and evening, 0.5 g/administration", "result": "Reduction of muscle pain"}]}]}
